What was measured:
MNK1a = MNK1a (Homo sapiens, UniProt Q9BUB5); experiment: MNK1 in vitro kinase assay (assay 2), Z'-LYTE; type: biochemical; details: for inhibition at 1 µM: compound concentration of 1 μM; for IC50: pre-activated GST-MNK1a
From the text: B. MNK1 In Vitro Kinase Assay (Assay 2)
MNK1 Data can be obtained from the MNK1 Z′-LYTE® assay. The MNK1 Z′-LYTE® screening protocol and assay conditions are also described on www.invitrogen.com.
The assay is described as follows:
The Z′-LYTE® biochemical assay employs a fluorescence-based, coupled-enzyme format and is based on the differential sensitivity of phosphorylated and non-phosphorylated peptides to proteolytic cleavage. The peptide substrate is labeled with two fluorophores—one at each end—that make up a FRET pair.
In the primary reaction, the kinase transfers the gamma-phosphate of ATP to a single tyrosine, serine or threonine residue in a synthetic FRET-peptide. In the secondary reaction, a site-specific protease recognizes and cleaves non-phosphorylated FRET-peptides. Phosphorylation of FRET-peptides suppresses cleavage by the Development Reagent. Cleavage disrupts FRET between the donor (i.e., coumarin) and acceptor (i.e., fluorescein) fluorophores on the FRET-peptide, whereas uncleaved, phosphorylated FRET-peptides maintain FRET. A ratiometric method, which calculates the ratio (the Emission Ratio) of donor emission to acceptor emission after excitation of the donor fluorophore at 400 nm, is used to quantitate reaction progress, as shown in the equation below. Emission Ratio=Coumarin Emission(445 nm)/Fluorescein Emission(520 nm)
ASSAY SETUP: The inhibition of kinase activity of MNK1a was assessed using pre-activated GST-MNK1a. The 2×MKNK1 (MNK1) mixture is prepared in 50 mM HEPES pH 7.5, 0.01% BRIJ-35, 10 mM MgCl2, 4 mM MnCl2, 1 mM EGTA, 2 mM DTT. The final 10 μL Kinase Reaction consists of 13.5-54 ng MKNK1 (MNK1) and 2 μM Ser/Thr 07 in 50 mM HEPES pH 7.5, 0.01% BRIJ-35, 10 mM MgCl2, 2 mM MnCl2, 1 mM EGTA, 1 mM DTT. After the 1 hour Kinase Reaction incubation, 5 μL of a 1:32768 dilution of Development Reagent A is added.
The Test Compounds are screened in 1% DMSO (final) in the well.
All Peptide/Kinase Mixtures are diluted to a 2× working concentration in the MNK1 Kinase Buffer.
All ATP Solutions are diluted to a 4× working concentration in Kinase Buffer (50 mM HEPES pH 7.5, 0.01% BRIJ-35, 10 mM MgCl2, 1 mM EGTA).
Development Reagent Solution:
The Development Reagent is diluted in Development Buffer
Bar-coded Corning, low volume NBS, 384-well plate (Corning Cat. #3676)
1. 2.5 μL-4× Test Compound
2. 5 μL-2× Peptide/Kinase Mixture
5. 60-minute Kinase Reaction incubation at room temperature
6. 5 μL-Development Reagent Solution
8. 60-minute Development Reaction incubation at room temperature
9. Read on fluorescence plate reader and analyze the data
The following equations are used for each set of data points: […]
Correction for Background Fluorescence: FSample−FITCFl Ctl
Emission Ratio (using values corrected for background fluorescence):Coumarin
Emission (445 nm)/Fluorescein Emission (520 nm)
% Phosphorylation (% Phos): 1−((Emission Ratio×F100%)−C100%)/((C0%−C100%)+[Emission Ratio×(F100%−F0%)])*100 % Inhibition: 1−(% PhosSample/% Phos0% Inhibition Ctl)*100 FI=Fluorescence Intensity C100%=Average Coumarin emission signal of the 100% Phos. Control C0%=Average Coumarin emission signal of the 0% Phos. Control F100%=Average Fluorescein emission signal of the 100% Phos. Control F0%=Average Fluorescein emission signal of the 0% Phos. Control Graphing Software
SelectScreen® Kinase Profiling Service uses XLfit from IDBS. The dose response curve is curve fit to model number 205 (sigmoidal dose-response model).

MNK2a = molecular target: T1, MNK2a (Homo sapiens, UniProt Q9HBH9); experiment: MNK2a in vitro kinase assay (assay 1), ADP-Glo; type: biochemical; details: preactivated GST-MNK2a, 20 μM ATP, read-out: MNK2 IC50
T1 construct: made in house
How it was run: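 Preactivated GST-MNK2a (10 nM) with eIF4E peptide (25 μM) and ATP (20 μM) in HEPES/DTT/MgCl2 buffer, 90 min at room temperature, final DMSO <3%. ADP formed read by ADP-Glo luminescence and normalised to vehicle and 20 μM reference-inhibitor controls; IC50 from dose-response curves.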

Sequence of MNK1a (Q9BUB5 1-424 isoform Q9BUB5-2): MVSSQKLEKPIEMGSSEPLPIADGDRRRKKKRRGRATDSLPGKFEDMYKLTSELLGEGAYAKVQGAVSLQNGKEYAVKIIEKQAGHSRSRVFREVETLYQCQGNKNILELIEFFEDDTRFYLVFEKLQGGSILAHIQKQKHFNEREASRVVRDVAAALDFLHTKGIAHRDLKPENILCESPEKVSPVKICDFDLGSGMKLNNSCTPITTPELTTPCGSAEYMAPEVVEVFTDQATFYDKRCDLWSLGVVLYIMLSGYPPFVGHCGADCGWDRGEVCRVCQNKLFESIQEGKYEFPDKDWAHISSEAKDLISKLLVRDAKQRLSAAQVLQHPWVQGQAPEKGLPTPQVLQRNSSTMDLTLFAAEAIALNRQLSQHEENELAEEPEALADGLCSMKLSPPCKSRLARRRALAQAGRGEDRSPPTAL
T1 sequence (Q9HBH9 whole entry): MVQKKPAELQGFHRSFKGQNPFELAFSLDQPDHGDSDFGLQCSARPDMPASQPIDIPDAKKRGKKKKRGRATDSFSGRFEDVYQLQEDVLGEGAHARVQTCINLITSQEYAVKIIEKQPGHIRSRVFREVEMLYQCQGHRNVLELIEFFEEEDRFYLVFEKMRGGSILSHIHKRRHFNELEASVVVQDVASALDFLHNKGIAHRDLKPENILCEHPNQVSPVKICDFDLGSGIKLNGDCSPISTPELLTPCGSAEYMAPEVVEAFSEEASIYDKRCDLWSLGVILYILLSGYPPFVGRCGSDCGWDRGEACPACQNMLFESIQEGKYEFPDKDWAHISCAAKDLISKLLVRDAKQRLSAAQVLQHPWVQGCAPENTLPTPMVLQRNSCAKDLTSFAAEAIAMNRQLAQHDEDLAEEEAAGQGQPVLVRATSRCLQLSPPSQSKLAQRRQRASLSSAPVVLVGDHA

| inhibition at 1 µM (MNK1a) [%] | IC50 (MNK2a) [nM] | IC50 (MNK1a) [nM] | SMILES |
| --- | --- | --- | --- |
| 100 | 2 | – | Cc1cc(N=S(C)(C)=O)cc2ncnc(Nc3cccnc3O[C@H]3CC[C@H](O)CC3)c12 [Example 2.31] |
| 95 | 4 | – | CS(C)(=O)=Nc1cc(F)c2c(Nc3ccc(F)cc3O[C@H]3CC[C@@](C)(O)CC3)ncnc2c1 [Example 2.35] |
| 100 | 3 | – | CCS(C)(=O)=Nc1cc(C)c2c(Nc3cccnc3O[C@H]3CC[C@H](O)CC3)ncnc2c1 (stereo partly drawn) [Example 2.44] |
| 86 | 4 | – | CO[C@H]1CC[C@H](Oc2ncccc2Nc2ncnc3cc(N=S(C)(C)=O)cc(F)c23)CC1 [Example 2.49] |
| 94 | 13 | – | CS(C)(=O)=Nc1cc(F)c2c(Nc3cccnc3O[C@@H]3CCOC3)ncnc2c1 [Example 2.53] |
| 76 | 11 | – | CO[C@H]1CC[C@H](Oc2cc(F)ccc2Nc2ncnc3cc(N=S4(=O)CCOCC4)cc(F)c23)CC1 [Example 2.56] |
| 98 | 5 | – | Cc1cc(N=S(C)(C)=O)cc2ncnc(Nc3ccc(C#N)cc3O[C@H]3CC[C@H](O)CC3)c12 [Example 2.65] |
| 85 | 3 | – | CO[C@@H]1CCCC[C@H]1Oc1cc(F)ccc1Nc1ncnc2cc(N=S(C)(C)=O)cc(C)c12 [Example 2.67] |
| 100 | 3 | 75 | CO[C@H]1CC[C@H](Oc2cc(F)ccc2Nc2ncnc3cc(N=S(C)(C)=O)cc(C)c23)CC1 [Example 2.75] |
| 55 | 164 | – | CC(C)(C)OC(=O)N1CCC[C@@H](Oc2ncccc2Nc2ncnc3cc(N=S(C)(C)=O)cc(F)c23)C1 [Example 2.77] |
| 92 | 4 | – | CCS(C)(=O)=Nc1cc(C)c2c(Nc3ccc(F)cc3O[C@H]3CC[C@H](OC)CC3)ncnc2c1 (stereo partly drawn) [Example 2.81] |
| 79 | 7 | – | COCCS(C)(=O)=Nc1cc(C)c2c(Nc3ccc(F)cc3O[C@H]3CC[C@H](OC)CC3)ncnc2c1 (stereo partly drawn) [Example 2.87] |
| 93 | 7 | – | Cc1cc(N=S(C)(C)=O)cc2ncnc(Nc3cccnc3OC3COCCOC3)c12 [Example 2.91] |

The next lines start with the molecule.

| SMILES | inhibition at 1 µM (MNK1a) [%] | IC50 (MNK2a) [nM] | IC50 (MNK1a) [nM] |
| --- | --- | --- | --- |
| Cc1cc(N=S(C)(C)=O)cc2ncnc(Nc3ccc(C(N)=O)cc3OC3CCCC3)c12 [Example 2.24] | 93 | 4 | – |
| Cc1cc(N=S(C)(C)=O)cc2ncnc(Nc3ccc(F)cc3O[C@@H]3CCCN(C(=O)OC(C)(C)C)C3)c12 [Example 2.27] | 78 | 46 | – |
| Cc1cc(N=S(C)(C)=O)cc2ncnc(Nc3ccc(F)cc3O[C@@H]3CO[C@H]4[C@@H]3OC[C@H]4OC(C)C)c12 [Example 2.28] | 98 | 4 | – |
| Cc1cc(N=S(C)(C)=O)cc2ncnc(Nc3ccc(F)cc3O[C@@H]3CO[C@H]4[C@@H]3OC[C@H]4C#N)c12 [Example 2.30] | 88 | 7 | – |
| CCS(C)(=O)=Nc1cc(C)c2c(Nc3ccc(F)cc3O[C@@H]3CO[C@H]4[C@@H]3OC[C@H]4O)ncnc2c1 (stereo partly drawn) [Example 2.33] | 100 | 3 | – |
| CO[C@@H]1CO[C@H]2[C@@H]1OC[C@H]2Oc1cc(F)ccc1Nc1ncnc2cc(N=S(C)(C)=O)cc(C)c12 [Example 2.34] | – | 1 | 17 |
| CCO[C@@H]1CO[C@H]2[C@@H]1OC[C@H]2Oc1cc(F)ccc1Nc1ncnc2cc(N=S3(=O)CCCC3)cc(C)c12 [Example 2.37] | 95 | 1 | – |
| Cc1cc(N=S(C)(=O)c2ccccn2)cc2ncnc(Nc3ccc(F)cc3O[C@H]3CCOC3)c12 (stereo partly drawn) [Example 2.38] | 82 | 7 | – |
| Cc1cc(N=S2(=O)CCCC2)cc2ncnc(Nc3ccc(F)cc3O[C@H]3CC[C@H](O)CC3)c12 [Example 2.40] | 100 | 2 | 56 |
| COCCS(C)(=O)=Nc1cc(C)c2c(Nc3ccc(F)cc3O[C@@H]3CO[C@H]4[C@@H]3OC[C@H]4O)ncnc2c1 (stereo partly drawn) [Example 2.41] | 90 | 6 | – |
| Cc1cc(N=S(C)(C)=O)cc2ncnc(Nc3ccc(F)cc3O[C@@H]3CO[C@H]4[C@@H]3OC[C@@]4(C)O)c12 [Example 2.45] | 90 | 2 | – |
| Cc1cc(N=S(C)(C)=O)cc2ncnc(Nc3ccc(F)cc3O[C@H]3CCOC3)c12 [Example 2.47] | 97 | 2 | – |
| Cc1cc(N=S2(=O)CCCCC2)cc2ncnc(Nc3ccc(F)cc3O[C@@H]3CO[C@H]4[C@@H]3OC[C@H]4O)c12 [Example 2.51] | 101 | 3 | – |
| Cc1cc(N=S(C)(=O)CCc2ccccc2)cc2ncnc(Nc3ccc(F)cc3O[C@H]3CC[C@H](O)CC3)c12 (stereo partly drawn) [Example 2.54] | 69 | 5 | – |
| CCS(C)(=O)=Nc1cc(C)c2c(Nc3ccc(F)cc3O[C@@H]3CO[C@H]4[C@@H]3OC[C@H]4OC)ncnc2c1 (stereo partly drawn) [Example 2.55] | 99 | 2 | – |
| Cc1cc(N=S(C)(C)=O)cc2ncnc(Nc3ccsc3O[C@@H]3CCOC3)c12 [Example 2.58] | 30 | 109 | – |
| Cc1cc(N=S2(=O)CCCC2)cc2ncnc(Nc3ccc(F)cc3O[C@@H]3CCN(C(=O)OC(C)(C)C)C3)c12 [Example 2.59] | 82 | 15 | – |
| Cc1cc(N=S(C)(C)=O)cc2ncnc(Nc3ccc(F)cc3O[C@@H]3CO[C@H]4[C@@H]3OC[C@@H]4C#N)c12 [Example 2.61] | 98 | 2 | – |
| Cc1cc(N=[S@@](C)(=O)c2ccccc2)cc2ncnc(Nc3ccc(F)cc3O[C@H]3CCOC3)c12 [Example 2.64] | 87 | 3 | – |
| Cc1cc(N=S2(=O)CCCC2)cc2ncnc(Nc3ccc(F)cc3O[C@@H]3CCCN(C(=O)OC(C)(C)C)C3)c12 [Example 2.66] | 88 | 16 | – |
| Cc1cc(N=[S@](C)(=O)c2ccccc2)cc2ncnc(Nc3ccc(F)cc3O[C@H]3CCOC3)c12 [Example 2.72] | 71 | 30 | – |
| CO[C@@H]1CO[C@H]2[C@@H]1OC[C@H]2Oc1cc(F)ccc1Nc1ncnc2cc(N=S(C)(C)=O)cc(F)c12 [Example 2.76] | 100 | 5 | 57 |
| Cc1cc(N=S(C)(C)=O)cc2ncnc(Nc3ccc(F)cc3O[C@H]3CO[C@H]4[C@@H]3OC[C@@H]4O)c12 [Example 2.80] | 73 | 19 | – |
| CO[C@H]1CC[C@H](Oc2cc(F)ccc2Nc2ncnc3cc(N=S4(=O)CCCCC4)cc(C)c23)CC1 [Example 2.84] | 91 | 2 | – |
| Cc1cc(N=S2(=O)CCCC2)cc2ncnc(Nc3cccnc3OC3COCCOC3)c12 [Example 2.88] | 95 | 5 | – |
| CCS(=O)(CC)=Nc1cc(C)c2c(Nc3ccc(F)cc3O[C@H]3CCOC3)ncnc2c1 [Example 2.92] | 83 | 13 | – |
